Source: patent EP4789665A1, “TREATMENT OF HIS HYPORESPONDERS” (NewAmsterdam Pharma B.V., priority 2021, dated 2023)
Like-named read-outs stand apart in the source and are kept apart here.

Legend:
[1] = Phase 2 study: plasma obicetrapib concentrations during PK follow-up after end of treatment; assay type: in vivo, human
Procedure: The screening period for this study took up to 2-weeks. Afterwards patients were randomized to placebo, 5 mg obicetrapib or 10 mg obicetrapib for an 8-week treatment period. After the treatment period, patients continued for a 4-week safety follow-up and a 15-week PK follow-up.
The primary outcome measure was LDL-C (percent change). Secondary outcome measures included ApoB, Non-HDL-C and HDL-C (percent change). The Intent-to-Treat (ITT) Population included all participants randomized into the study. The Modified ITT (mITT) Population included all participants in the ITT Population who receive at least 1 dose of any study drug and have a baseline value for the LDL-C assessment. The Safety Population included all participants who receive at least 1 dose of any study drug. The mITT Population was the primary population for the efficacy analyses. The primary efficacy analysis of the percent change in LDL-C was performed using a mixed model for repeated measures (MMRM) approach. In order to maintain the overall Type I error rate, the secondary efficacy endpoints were tested sequentially at the 0.05 significance level according to the pre-specified order of hierarchy. All safety endpoints were summarized descriptively. No statistical inference was applied to the safety endpoints. Plasma obicetrapib concentrations were summarized with descriptive statistics based on the PK Population.

CETP = biological target: T1, CETP (Homo sapiens, UniProt P11597); conditions: TULIP, cited from earlier work
T1 construct: endogenous in cells; host or cells: trial patients (in vivo, circulating plasma CETP)
T1 sequence (P11597 18-493): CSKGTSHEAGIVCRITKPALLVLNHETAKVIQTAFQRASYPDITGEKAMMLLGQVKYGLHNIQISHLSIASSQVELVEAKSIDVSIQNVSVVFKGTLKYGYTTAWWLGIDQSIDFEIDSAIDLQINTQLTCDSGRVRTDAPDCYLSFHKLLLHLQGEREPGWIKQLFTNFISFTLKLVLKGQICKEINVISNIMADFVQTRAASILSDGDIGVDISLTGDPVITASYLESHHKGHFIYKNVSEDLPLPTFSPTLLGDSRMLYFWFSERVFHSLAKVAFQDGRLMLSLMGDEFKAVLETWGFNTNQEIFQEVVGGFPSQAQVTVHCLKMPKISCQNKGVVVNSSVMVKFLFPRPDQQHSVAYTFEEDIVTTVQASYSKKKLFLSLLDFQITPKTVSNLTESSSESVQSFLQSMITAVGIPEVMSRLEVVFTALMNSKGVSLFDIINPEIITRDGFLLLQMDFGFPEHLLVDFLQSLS

CCOC(=O)N1c2ccc(C(F)(F)F)cc2[C@@H](N(Cc2cc(C(F)(F)F)cc(C(F)(F)F)c2)c2ncc(OCCCC(=O)O)cn2)C[C@H]1CC [Obicetrapib, (2R,4S)-4-{[3,5-bis(trifluoromethyl)benzyl]-[5-(3-carboxypropoxy)pyrimidin-2-yl]amino}-2-ethyl-6-trifluoromethyl-3,4-dihydro-2H-quinoline-1-carboxylic acid ethyl ester]
Plasma obicetrapib levels decreased by (median) ([1]; 5 mg group, 4 weeks after the end-of-treatment): 92%
Plasma obicetrapib levels decreased by (median) ([1]; 5 mg group, 8 weeks after the end-of-treatment): 98%
Plasma obicetrapib levels decreased by (median) ([1]; 5 mg group, 15 weeks after the end-of-treatment): 99%
Plasma obicetrapib levels decreased by (median) ([1]; 10 mg group, 4 weeks after the end-of-treatment): 93%
Plasma obicetrapib levels decreased by (median) ([1]; 10 mg group, 8 weeks after the end-of-treatment): 98%
Plasma obicetrapib levels decreased by (median) ([1]; 10 mg group, 15 weeks after the end-of-treatment): 99%
nearly completely cleared from circulation by (time post-treatment) ([1]; after 8 weeks of once daily treatment): 4-8 weeks
LDL-C reductions (CETP; 1 mg for 12 weeks, mild dyslipidemia): 27%
LDL-C reductions (CETP; 2.5 mg for 12 weeks, mild dyslipidemia): 33%
LDL-C reductions (CETP; 5 mg for 12 weeks, mild dyslipidemia): 45%
incremental LDL-C reduction compared with statin monotherapy (CETP; 10 mg daily with 20 mg atorvastatin or 10 mg rosuvastatin, 12 weeks): up to 50%
LDL-C reductions (CETP; 10 mg for 12 weeks, mild dyslipidemia): 45%
LDL-C reductions (CETP; 10 mg obicetrapib plus 10 mg rosuvastatin): 63%
LDL-C reductions (CETP; 10 mg obicetrapib plus 20 mg atorvastatin): 68%
